Measurements from patent US4321381A, “Ergot derivatives” (Farmitalia Carlo Erba S.p.A., priority 1978, dated 1982).

What was measured:
[1] = test system: spontaneously hypertensive male rats, strain MHS; test: Anti-hypertensive activity in the spontaneously hypertensive rat (MHS): blood pressure and heart rate at the tail; format: in vivo
Protocol: 1. Spontaneously Hypertensive Rat (MHS)
Four spontaneously hypertensive male rats, strain MHS, weight 250 to 300 g for each group were used. The animals were treated for four consecutive days. The drugs were administered by gastric gavage while suspended in 5% arabic gum (0.2 ml/100 g body weight), and blood pressure (BP) and heart rate (HR) were measured at the tail by BP Recorder W+W. Blood pressure and heart rate were measured on the first and fourth day of treatment 1 hour before and 1 and 5 hours after drug administration.

normotensive rats = test: Blood pressure and heart rate in the conscious normotensive rat (NR); format: in vivo; settings: 5 mg/kg os
Protocol: Blood pressure recordings have been made in conscious normotensive unrestrained rats weighing approximately 300 g, via a catheter chronically inserted into the left common carotid artery. Implantation of arterial cannula was made under sodium pentobarbital anesthesia (50 mg/kp i.p.) A 1 cm long incision was made through the previously shaved ventral surface of the neck and the tissues overlying the trachea parted by blunt dissection to reveal the carotid artery. The polyethylene catheter used was made with PE 50 tubing, previously filled with saline containing 250 I.U./ml heparin. The tip of the cannula was pushed at least 2 cm inside the vessel toward the heart. The cannula was then firmly tied and passed beneath the skin to emerge from a small incision in the back of the neck. During the post-operative period and before the start of each recording session, the cannula was flushed through daily with saline containing heparin (250 I.U./ml). The experiments were performed two days after surgery. Drugs were administered by gastric gavage.

[2] = Acute toxicity (LD50) in mice; format: in vivo, mouse; settings: mouse, in vivo; male mice; oral; observed for seven days
Source text: (§1) Evaluation of the Toxicity (LD50)
(§2) Ten male mice for each group were orally treated with drugs at different dose levels for the determination of lethal dose 50 (LD50).

male mice = test: Acute toxicity (LD50) in mice; format: in vivo, mouse; settings: oral, observed for seven days, 10080 min
Source text: as §1, §2

For `CCNC(=O)C(C#N)C[C@@H]1C[C@@H]2c3cccc4[nH]cc(c34)C[C@H]2N(C)C1` (stereo partly drawn) [Example 1138, 2-Cyano-3-(6'-methylergoline-8'β)-N-ethylpropionamide], the “Change in BP, 1 hr after dose, first day” value ([1]; 2 mg/kg os) was -23 mm Hg, the “Change in HR, 1 hr after dose, first day” value ([1]; 2 mg/kg os) was -25 b/min and the “Change in HR, 5 hr after dose, first day” value ([1]; 2 mg/kg os) was -10 b/min. For the same compound, the “Change in BP, 5 hrs after dose, first day” value ([1]; 2 mg/kg os) was -14 mm Hg, the “Change in BP, 1 hr after dose, fourth day” value ([1]; 2 mg/kg os) was -30 mm Hg and the “Change in HR, 1 hr after dose, fourth day” value ([1]; 2 mg/kg os) was -47 b/min. For the same compound, the “Change in HR, 5 hr after dose, fourth day” value ([1]; 2 mg/kg os) was -12 b/min, the “Change in BP, 5 hrs after dose, fourth day” value ([1]; 2 mg/kg os) was -15 mm Hg and the “Change in BP, 1 hr after dose, first day” value ([1]; 5 mg/kg os) was -25 mm Hg. The “Change in HR, 1 hr after dose, first day” value ([1]; 5 mg/kg os) was -8 b/min, the “Change in HR, 5 hr after dose, first day” value ([1]; 5 mg/kg os) was “+5 b/min” and the “Change in BP, 5 hrs after dose, first day” value ([1]; 5 mg/kg os) was -9 mm Hg. The “Change in BP, 1 hr after dose, fourth day” value ([1]; 5 mg/kg os) was -26 mm Hg, the “Change in HR, 1 hr after dose, fourth day” value ([1]; 5 mg/kg os) was -20 b/min and the “Change in HR, 5 hr after dose, fourth day” value ([1]; 5 mg/kg os) was -25 b/min. For the same compound, the “Change in BP, 5 hrs after dose, fourth day” value ([1]; 5 mg/kg os) was -11 mm Hg, the “Change in Blood Pressure after Treatment, 30'” value (shortened to “Change in Blood Pressure … 30'”) (normotensive rats) was -10 mm Hg and the “Change in heart rate after treatment, 30'” value (from here on “Change in heart rate … 30'”) (normotensive rats) was -15 b/min. The “Change in Blood Pressure after Treatment, 60'” value (normotensive rats) was -20 mm Hg, the “Change in heart rate after treatment, 60'” value (normotensive rats) was -30 b/min and the “Change in Blood Pressure after Treatment, 120'” value (“Change in Blood Pressure … 120'” for short) (normotensive rats) was -15 mm Hg. For the same compound, the “Change in heart rate after treatment, 120'” value (from here on “Change in heart rate … 120'”) (normotensive rats) was -30 b/min, the “Change in Blood Pressure after Treatment, 180'” value (from here on “Change in Blood Pressure … 180'”) (normotensive rats) was -10 mm Hg and the “Change in heart rate after treatment, 180'” value (from here on “Change in heart rate … 180'”) (normotensive rats) was -15 b/min. The “Change in Blood Pressure after Treatment, 240'” value (from here on “Change in Blood Pressure … 240'”) (normotensive rats) was -10 mm Hg, the “Change in heart rate after treatment, 240'” value (from here on “Change in heart rate … 240'”) (normotensive rats) was 0 b/min and the “Change in Blood Pressure after Treatment, 360'” value (from here on “Change in Blood Pressure … 360'”) (normotensive rats) was 0 mm Hg. The “Change in heart rate after treatment, 360'” value (from here on “Change in heart rate … 360'”) (normotensive rats) was “+5 b/min”, the “Change in Blood Pressure after Treatment, 24h” value (from here on “Change in Blood Pressure … 24h”) (normotensive rats) was 0 mm Hg and the “Change in heart rate after treatment, 24h” value (“Change in heart rate … 24h” for short) (normotensive rats) was “+10 b/min”. For the same compound, the LD50 at 168 h [2] was 500 mg/kg.
For `CN1C[C@H](CC(C#N)C(N)=O)C[C@@H]2c3cccc4[nH]c(Br)c(c34)C[C@H]21` (stereo partly drawn) [Example 1139, 2-Cyano-3-(2-bromo-6'-methylergoline-8'β)-propionamide], the “Change in BP, 1 hr after dose, first day” value ([1]; 2 mg/kg os) was -13 mm Hg, the “Change in HR, 1 hr after dose, first day” value ([1]; 2 mg/kg os) was “+7 b/min” and the “Change in HR, 5 hr after dose, first day” value ([1]; 2 mg/kg os) was “+12 b/min”. For the same compound, the “Change in BP, 5 hrs after dose, first day” value ([1]; 2 mg/kg os) was -23 mm Hg, the “Change in BP, 1 hr after dose, fourth day” value ([1]; 2 mg/kg os) was -18 mm Hg and the “Change in HR, 1 hr after dose, fourth day” value ([1]; 2 mg/kg os) was “+47 b/min”. The “Change in HR, 5 hr after dose, fourth day” value ([1]; 2 mg/kg os) was “+35 b/min”, the “Change in BP, 5 hrs after dose, fourth day” value ([1]; 2 mg/kg os) was -12 mm Hg and the “Change in BP, 1 hr after dose, first day” value ([1]; 5 mg/kg os) was -25 mm Hg. The “Change in HR, 1 hr after dose, first day” value ([1]; 5 mg/kg os) was “+28 b/min”, the “Change in HR, 5 hr after dose, first day” value ([1]; 5 mg/kg os) was “+13 b/min” and the “Change in BP, 5 hrs after dose, first day” value ([1]; 5 mg/kg os) was -24 mm Hg. For the same compound, the “Change in BP, 1 hr after dose, fourth day” value ([1]; 5 mg/kg os) was -12 mm Hg, the “Change in HR, 1 hr after dose, fourth day” value ([1]; 5 mg/kg os) was -10 b/min and the “Change in HR, 5 hr after dose, fourth day” value ([1]; 5 mg/kg os) was -12 b/min. For the same compound, the “Change in BP, 5 hrs after dose, fourth day” value ([1]; 5 mg/kg os) was -13 mm Hg, the “Change in Blood Pressure … 30'” value (normotensive rats) was -5 mm Hg and the “Change in heart rate … 30'” value (normotensive rats) was 0 b/min. The “Change in Blood Pressure after Treatment, 60'” value (normotensive rats) was -12 mm Hg, the “Change in heart rate after treatment, 60'” value (normotensive rats) was “+10 b/min” and the “Change in Blood Pressure … 120'” value (normotensive rats) was -12 mm Hg. For the same compound, the “Change in heart rate … 120'” value (normotensive rats) was “+10 b/min”, the “Change in Blood Pressure … 180'” value (normotensive rats) was -10 mm Hg and the “Change in heart rate … 180'” value (normotensive rats) was -5 b/min. For the same compound, the “Change in Blood Pressure … 240'” value (normotensive rats) was -5 mm Hg, the “Change in heart rate … 240'” value (normotensive rats) was 0 b/min and the “Change in Blood Pressure … 360'” value (normotensive rats) was 0 mm Hg. The “Change in heart rate … 360'” value (normotensive rats) was “+15 b/min”, the “Change in Blood Pressure … 24h” value (normotensive rats) was “+2 mm Hg” and the “Change in heart rate … 24h” value (normotensive rats) was 0 b/min. It also gave an LD50 at 168 h [2] of 125 mg/kg.
For `NNc1nncc2ccccc12` [Hydralazine, hydralazine, reference compound], the “Change in BP, 1 hr after dose, first day” value ([1]; 2 mg/kg os) was “+2 mm Hg”, the “Change in HR, 1 hr after dose, first day” value ([1]; 2 mg/kg os) was “+10 b/min” and the “Change in HR, 5 hr after dose, first day” value ([1]; 2 mg/kg os) was -28 b/min. The “Change in BP, 5 hrs after dose, first day” value ([1]; 2 mg/kg os) was “+18 mm Hg”, the “Change in BP, 1 hr after dose, fourth day” value ([1]; 2 mg/kg os) was “+7 mm Hg” and the “Change in HR, 1 hr after dose, fourth day” value ([1]; 2 mg/kg os) was “+43 b/min”. The “Change in HR, 5 hr after dose, fourth day” value ([1]; 2 mg/kg os) was “+23 b/min”, the “Change in BP, 5 hrs after dose, fourth day” value ([1]; 2 mg/kg os) was “+15 mm Hg” and the “Change in BP, 1 hr after dose, first day” value ([1]; 5 mg/kg os) was -52 mm Hg. The “Change in HR, 1 hr after dose, first day” value ([1]; 5 mg/kg os) was -45 b/min, the “Change in HR, 5 hr after dose, first day” value ([1]; 5 mg/kg os) was “+12 b/min” and the “Change in BP, 5 hrs after dose, first day” value ([1]; 5 mg/kg os) was -38 mm Hg. For the same compound, the “Change in BP, 1 hr after dose, fourth day” value ([1]; 5 mg/kg os) was -7 mm Hg, the “Change in HR, 1 hr after dose, fourth day” value ([1]; 5 mg/kg os) was “+10 b/min” and the “Change in HR, 5 hr after dose, fourth day” value ([1]; 5 mg/kg os) was “+12 b/min”. The “Change in BP, 5 hrs after dose, fourth day” value ([1]; 5 mg/kg os) was -8 mm Hg, the “Change in Blood Pressure … 30'” value (normotensive rats) was -19 mm Hg and the “Change in heart rate … 30'” value (normotensive rats) was “+70 b/min”. The “Change in Blood Pressure after Treatment, 60'” value (normotensive rats) was -13 mm Hg, the “Change in heart rate after treatment, 60'” value (normotensive rats) was “+40 b/min” and the “Change in Blood Pressure … 120'” value (normotensive rats) was -10 mm Hg. For the same compound, the “Change in heart rate … 120'” value (normotensive rats) was “+21 b/min”, the “Change in Blood Pressure … 180'” value (normotensive rats) was -7 mm Hg and the “Change in heart rate … 180'” value (normotensive rats) was “+9 b/min”. The “Change in Blood Pressure … 240'” value (normotensive rats) was -5 mm Hg, the “Change in heart rate … 240'” value (normotensive rats) was “+21 b/min” and the “Change in Blood Pressure … 360'” value (normotensive rats) was -7 mm Hg. For the same compound, the “Change in heart rate … 360'” value (normotensive rats) was “+12 b/min”, the “Change in Blood Pressure … 24h” value (normotensive rats) was 0 mm Hg and the “Change in heart rate … 24h” value (normotensive rats) was “+3 b/min”. For the same compound, the LD50 at 168 h [2] was 122 mg/kg.
With `C[C@](N)(Cc1ccc(O)c(O)c1)C(=O)O` [α-methyl-DOPA, reference compound] the “Change in HR, 1 hr after dose, first day” value ([1]; 30 mg/kg os) was “+40 b/min”, the “Change in HR, 5 hr after dose, first day” value ([1]; 30 mg/kg os) was “+15 b/min” and the “Change in BP, 5 hrs after dose, first day” value ([1]; 30 mg/kg os) was -12 mm Hg. The “Change in BP, 1 hr after dose, fourth day” value ([1]; 30 mg/kg os) was -12 mm Hg, the “Change in HR, 1 hr after dose, fourth day” value ([1]; 30 mg/kg os) was “+57 b/min” and the “Change in HR, 5 hr after dose, fourth day” value ([1]; 30 mg/kg os) was -18 b/min. For the same compound, the “Change in BP, 5 hrs after dose, fourth day” value ([1]; 30 mg/kg os) was -19 mm Hg, the “Change in BP, 1 hr after dose, first day” value ([1]; 100 mg/kg os) was “+5 mm Hg” and the “Change in HR, 1 hr after dose, first day” value ([1]; 100 mg/kg os) was “+87 b/min”. The “Change in BP, 5 hrs after dose, first day” value ([1]; 100 mg/kg os) was -38 mm Hg, the “Change in BP, 1 hr after dose, fourth day” value ([1]; 100 mg/kg os) was -41 mm Hg and the “Change in HR, 1 hr after dose, fourth day” value ([1]; 100 mg/kg os) was “+77 b/min”. For the same compound, the “Change in HR, 5 hr after dose, fourth day” value ([1]; 100 mg/kg os) was “+37 b/min”, the “Change in BP, 5 hrs after dose, fourth day” value ([1]; 100 mg/kg os) was -53 mm Hg and the “variation of the heart rate (HR), in words” value ([1]; Table 2) was “greatly increases it”. The LD50 (male mice) was 5300 mg/kg per os.
